Reference: article doi:10.1101/2021.04.08.439011v1 (biorxiv, 2021)

Tests used:
Settings in all cases: 0.1 µM; binder
TNK1 = TNK1 (Homo sapiens, UniProt Q13470)
PRKG1 = PRKG1 (Homo sapiens, UniProt Q13976)
RIPK2 = RIPK2 (Homo sapiens, UniProt O43353)
PIK3CA(I800L) = PIK3CA(I800L) (Homo sapiens, UniProt P42336, I800L)
DCAMKL1 = DCAMKL1 (Homo sapiens, UniProt O15075)
KIT(V559D) = KIT(V559D) (Homo sapiens, UniProt P10721, V559D)
BMX = BMX (Homo sapiens, UniProt P51813)
PKN1 = PKN1 (Homo sapiens, UniProt Q16512)
STK39 = STK39 (Homo sapiens, UniProt Q9UEW8)
ACVR1B = ACVR1B (Homo sapiens, UniProt P36896)
PDPK1 = PDPK1 (Homo sapiens, UniProt O15530)
MST2 = MST2 (Homo sapiens, UniProt Q13188)
FLT3(R834Q) = FLT3(R834Q) (Homo sapiens, UniProt P36888, R834Q)
HCK = HCK (Homo sapiens, UniProt P08631)
Chain of HCK (P08631 whole entry): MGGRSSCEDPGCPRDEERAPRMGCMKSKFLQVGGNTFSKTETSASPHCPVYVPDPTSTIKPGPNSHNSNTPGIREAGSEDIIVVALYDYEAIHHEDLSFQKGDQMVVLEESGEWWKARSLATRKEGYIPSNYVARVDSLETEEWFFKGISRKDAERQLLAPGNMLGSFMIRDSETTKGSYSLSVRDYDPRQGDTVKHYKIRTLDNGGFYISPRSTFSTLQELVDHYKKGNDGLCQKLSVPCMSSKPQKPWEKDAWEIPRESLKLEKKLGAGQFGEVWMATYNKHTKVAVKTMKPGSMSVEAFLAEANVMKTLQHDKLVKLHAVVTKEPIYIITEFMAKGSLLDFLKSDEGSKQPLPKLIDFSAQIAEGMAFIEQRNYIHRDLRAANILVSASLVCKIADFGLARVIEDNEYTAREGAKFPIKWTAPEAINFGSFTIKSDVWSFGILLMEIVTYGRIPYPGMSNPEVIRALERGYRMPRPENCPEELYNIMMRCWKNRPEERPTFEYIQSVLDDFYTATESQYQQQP

KIT(A829P) = KIT(A829P) (Homo sapiens, UniProt P10721, A829P)
Chain of KIT(A829P) (P10721 whole entry A829P): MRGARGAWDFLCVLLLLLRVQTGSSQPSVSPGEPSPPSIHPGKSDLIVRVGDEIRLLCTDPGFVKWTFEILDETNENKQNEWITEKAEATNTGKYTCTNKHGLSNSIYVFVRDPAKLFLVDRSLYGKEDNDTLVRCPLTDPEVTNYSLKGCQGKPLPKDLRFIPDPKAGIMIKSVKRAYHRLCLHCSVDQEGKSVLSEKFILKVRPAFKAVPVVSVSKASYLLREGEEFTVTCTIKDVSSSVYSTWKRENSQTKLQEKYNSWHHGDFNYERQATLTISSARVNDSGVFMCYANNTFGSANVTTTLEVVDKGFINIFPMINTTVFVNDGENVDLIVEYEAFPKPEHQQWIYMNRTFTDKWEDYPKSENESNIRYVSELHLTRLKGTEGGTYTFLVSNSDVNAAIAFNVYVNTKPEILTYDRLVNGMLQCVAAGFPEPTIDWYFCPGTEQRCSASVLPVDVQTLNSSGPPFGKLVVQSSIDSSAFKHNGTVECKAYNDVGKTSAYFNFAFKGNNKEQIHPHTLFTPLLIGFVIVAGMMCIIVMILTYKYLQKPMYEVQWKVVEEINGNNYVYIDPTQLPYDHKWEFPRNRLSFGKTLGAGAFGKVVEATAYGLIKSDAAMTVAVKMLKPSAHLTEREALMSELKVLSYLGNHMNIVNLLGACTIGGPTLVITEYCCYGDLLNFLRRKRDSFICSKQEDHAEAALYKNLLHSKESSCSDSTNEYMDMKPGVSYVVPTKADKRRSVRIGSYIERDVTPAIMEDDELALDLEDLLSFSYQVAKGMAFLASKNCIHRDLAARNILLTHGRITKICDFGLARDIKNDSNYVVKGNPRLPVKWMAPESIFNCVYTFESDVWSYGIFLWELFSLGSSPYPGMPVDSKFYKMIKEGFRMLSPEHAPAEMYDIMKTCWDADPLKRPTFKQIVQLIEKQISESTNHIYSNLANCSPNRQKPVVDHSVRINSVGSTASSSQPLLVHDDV

DRAK1 = DRAK1 (Homo sapiens, UniProt Q9UEE5)
Chain of DRAK1 (Q9UEE5 whole entry): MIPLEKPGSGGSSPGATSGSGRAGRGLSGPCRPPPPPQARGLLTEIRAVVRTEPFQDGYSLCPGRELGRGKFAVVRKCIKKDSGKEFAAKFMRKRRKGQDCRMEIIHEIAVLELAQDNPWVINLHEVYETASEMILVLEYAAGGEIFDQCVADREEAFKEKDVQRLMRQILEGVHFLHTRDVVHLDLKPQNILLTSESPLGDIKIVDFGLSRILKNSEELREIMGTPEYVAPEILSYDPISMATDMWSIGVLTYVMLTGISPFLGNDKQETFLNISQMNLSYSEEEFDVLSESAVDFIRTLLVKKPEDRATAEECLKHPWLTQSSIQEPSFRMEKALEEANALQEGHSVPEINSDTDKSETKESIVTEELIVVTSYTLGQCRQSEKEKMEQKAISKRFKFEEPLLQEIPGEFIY

TLK1 = TLK1 (Homo sapiens, UniProt Q9UKI8)
CDC2L1 = CDC2L1 (Homo sapiens, UniProt P21127)
BRK = BRK (Homo sapiens, UniProt Q13882)
Chain of BRK (Q13882 whole entry): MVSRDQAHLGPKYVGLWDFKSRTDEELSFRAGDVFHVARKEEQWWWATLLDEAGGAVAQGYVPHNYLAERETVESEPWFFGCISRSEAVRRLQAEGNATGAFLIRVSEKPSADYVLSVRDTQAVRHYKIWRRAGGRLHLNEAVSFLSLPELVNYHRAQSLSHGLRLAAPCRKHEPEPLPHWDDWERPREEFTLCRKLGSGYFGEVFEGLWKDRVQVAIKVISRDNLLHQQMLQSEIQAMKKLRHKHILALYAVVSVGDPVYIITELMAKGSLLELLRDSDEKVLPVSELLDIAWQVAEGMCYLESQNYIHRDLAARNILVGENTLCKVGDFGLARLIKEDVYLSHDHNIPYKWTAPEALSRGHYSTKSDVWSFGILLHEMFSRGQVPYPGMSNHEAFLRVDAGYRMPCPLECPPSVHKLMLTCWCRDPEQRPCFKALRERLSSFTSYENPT

MARK1 = MARK1 (Homo sapiens, UniProt Q9P0L2)
ERN1 = ERN1 (Homo sapiens, UniProt O75460)
ICK = ICK (Homo sapiens, UniProt Q9UPZ9)
EPHB1 = EPHB1 (Homo sapiens, UniProt P54762)
MAP3K15 = MAP3K15 (Homo sapiens, UniProt Q6ZN16)
p38-alpha = p38-alpha (Homo sapiens, UniProt Q16539)
Chain of p38-alpha (Q16539 whole entry): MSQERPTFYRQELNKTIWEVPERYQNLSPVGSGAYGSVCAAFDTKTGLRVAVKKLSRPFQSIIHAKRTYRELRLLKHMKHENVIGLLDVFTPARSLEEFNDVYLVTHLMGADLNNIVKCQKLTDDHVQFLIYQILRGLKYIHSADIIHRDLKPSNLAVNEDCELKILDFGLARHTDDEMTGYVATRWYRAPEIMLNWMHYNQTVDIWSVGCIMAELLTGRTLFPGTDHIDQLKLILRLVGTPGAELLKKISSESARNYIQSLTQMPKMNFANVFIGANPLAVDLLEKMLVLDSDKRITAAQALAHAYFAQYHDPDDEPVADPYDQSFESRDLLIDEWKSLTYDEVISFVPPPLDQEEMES

LYN = LYN (Homo sapiens, UniProt P07948)
PIK3CA(C420R) = PIK3CA(C420R) (Homo sapiens, UniProt P42336, C420R)
TESK1 = TESK1 (Homo sapiens, UniProt Q15569)
[1] = biological target: RPS6KA4(Kin.Dom.2-C-terminal) (Homo sapiens, UniProt O75676)
Chain of RPS6KA4(Kin.Dom.2-C-terminal) (O75676 whole entry): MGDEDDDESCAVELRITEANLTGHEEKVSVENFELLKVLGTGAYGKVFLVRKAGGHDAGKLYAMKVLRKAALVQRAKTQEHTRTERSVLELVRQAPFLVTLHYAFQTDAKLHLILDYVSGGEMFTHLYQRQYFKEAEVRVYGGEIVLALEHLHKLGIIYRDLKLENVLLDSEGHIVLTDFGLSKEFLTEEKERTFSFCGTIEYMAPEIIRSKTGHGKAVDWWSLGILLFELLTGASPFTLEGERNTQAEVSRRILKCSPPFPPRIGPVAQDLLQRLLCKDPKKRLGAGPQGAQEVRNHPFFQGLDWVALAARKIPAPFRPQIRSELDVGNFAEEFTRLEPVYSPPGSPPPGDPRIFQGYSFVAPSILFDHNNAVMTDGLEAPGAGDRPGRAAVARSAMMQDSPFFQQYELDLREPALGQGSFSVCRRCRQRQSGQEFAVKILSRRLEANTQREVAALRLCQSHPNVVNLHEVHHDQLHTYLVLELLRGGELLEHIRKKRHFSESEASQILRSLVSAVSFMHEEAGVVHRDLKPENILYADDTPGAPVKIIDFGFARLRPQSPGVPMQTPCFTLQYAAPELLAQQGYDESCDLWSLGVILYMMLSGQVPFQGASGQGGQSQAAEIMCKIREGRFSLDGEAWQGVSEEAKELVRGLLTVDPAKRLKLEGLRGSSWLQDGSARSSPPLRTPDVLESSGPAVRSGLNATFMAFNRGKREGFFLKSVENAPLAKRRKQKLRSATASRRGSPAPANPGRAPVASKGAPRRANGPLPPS

[2] = biological target: RSK3(Kin.Dom.1-N-terminal) (Homo sapiens, UniProt Q15349)
[3] = biological target: JAK1(JH1domain-catalytic) (Homo sapiens, UniProt P23458)

Chain of PRKG1 (Q13976 whole entry): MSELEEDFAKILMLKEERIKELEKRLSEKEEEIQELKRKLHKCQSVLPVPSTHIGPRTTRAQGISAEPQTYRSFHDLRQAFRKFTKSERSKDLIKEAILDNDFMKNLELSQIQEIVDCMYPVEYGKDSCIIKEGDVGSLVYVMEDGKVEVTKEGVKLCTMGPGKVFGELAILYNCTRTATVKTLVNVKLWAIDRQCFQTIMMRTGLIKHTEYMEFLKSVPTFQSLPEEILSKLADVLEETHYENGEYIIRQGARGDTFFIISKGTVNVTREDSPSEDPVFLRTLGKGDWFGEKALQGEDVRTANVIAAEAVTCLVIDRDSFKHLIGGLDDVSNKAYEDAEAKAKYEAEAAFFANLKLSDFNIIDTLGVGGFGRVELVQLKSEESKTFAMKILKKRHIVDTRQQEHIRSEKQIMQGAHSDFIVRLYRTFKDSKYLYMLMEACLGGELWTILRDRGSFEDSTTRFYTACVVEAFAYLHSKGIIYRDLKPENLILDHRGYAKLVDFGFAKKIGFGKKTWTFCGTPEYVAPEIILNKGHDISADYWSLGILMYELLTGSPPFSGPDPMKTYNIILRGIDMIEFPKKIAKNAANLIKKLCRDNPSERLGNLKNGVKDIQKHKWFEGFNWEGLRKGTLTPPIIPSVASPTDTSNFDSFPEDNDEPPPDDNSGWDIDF
Chain of DCAMKL1 (O15075 whole entry): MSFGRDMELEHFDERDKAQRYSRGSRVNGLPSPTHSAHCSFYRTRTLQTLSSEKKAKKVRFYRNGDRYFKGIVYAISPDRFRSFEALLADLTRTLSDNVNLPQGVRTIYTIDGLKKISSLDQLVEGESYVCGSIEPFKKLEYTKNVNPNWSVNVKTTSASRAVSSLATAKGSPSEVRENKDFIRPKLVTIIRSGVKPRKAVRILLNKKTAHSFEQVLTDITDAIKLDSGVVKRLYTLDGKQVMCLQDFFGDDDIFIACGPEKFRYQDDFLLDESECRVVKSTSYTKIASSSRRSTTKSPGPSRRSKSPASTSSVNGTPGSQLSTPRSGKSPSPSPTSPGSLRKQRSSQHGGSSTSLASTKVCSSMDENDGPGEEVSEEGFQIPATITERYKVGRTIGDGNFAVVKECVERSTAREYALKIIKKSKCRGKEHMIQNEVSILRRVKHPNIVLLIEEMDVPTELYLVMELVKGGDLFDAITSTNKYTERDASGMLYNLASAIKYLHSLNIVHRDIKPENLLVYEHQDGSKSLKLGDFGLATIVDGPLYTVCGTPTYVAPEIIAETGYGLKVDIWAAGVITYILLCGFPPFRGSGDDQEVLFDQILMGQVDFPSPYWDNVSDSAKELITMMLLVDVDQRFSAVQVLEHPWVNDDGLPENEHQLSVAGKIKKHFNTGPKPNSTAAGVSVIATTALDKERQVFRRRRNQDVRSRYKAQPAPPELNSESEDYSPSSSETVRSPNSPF
Chain of KIT(V559D) (P10721 whole entry V559D): as the sequence (P10721 whole entry A829P) above, with V559D, P829A counted along it

For `CNc1ncc2cc(-c3ccc(-c4cccc(C)n4)cc3Cl)c(=O)n(C[C@H]3OC[C@H](N)CO3)c2n1` [compound 6, G-5555], which “Percent Control” value (TNK1) is on record?
Its value is 100%.

What about the “Percent Control” value (PRKG1) of the same molecule?
Its value is 100%.

And the “Percent Control” value (RIPK2)?
Its value is 100%.

What about the “Percent Control” value (PIK3CA(I800L)) of the same molecule?
The value was 87%.

What about the “Percent Control” value (DCAMKL1) of the same molecule?
Its value is 80%.

What about the “Percent Control” value (KIT(V559D)) of the same molecule?
The value was 99%.

What about the “Percent Control” value (BMX) of the same molecule?
The value was 100%.

And the “Percent Control” value (PKN1)?
The value was 100%.

And the “Percent Control” value (STK39)?
Its value is 100%.

What about the “Percent Control” value (ACVR1B) of the same molecule?
The value was 100%.

And the “Percent Control” value (PDPK1)?
Its value is 99%.

And the “Percent Control” value (MST2)?
Its value is 64%.

What about the “Percent Control” value (FLT3(R834Q)) of the same molecule?
The value was 96%.

What about the “Percent Control” value (HCK) of the same molecule?
The value was 100%.

And the “Percent Control” value (KIT(A829P))?
Its value is 81%.

What about the “Percent Control” value (DRAK1) of the same molecule?
The value was 79%.

And the “Percent Control” value (TLK1)?
The value was 100%.

And the “Percent Control” value (CDC2L1)?
The value was 100%.

What about the “Percent Control” value (BRK) of the same molecule?
Its value is 100%.

And the “Percent Control” value (MARK1)?
The value was 100%.

What about the “Percent Control” value (ERN1) of the same molecule?
The value was 92%.

What about the “Percent Control” value (ICK) of the same molecule?
Its value is 100%.

What about the “Percent Control” value (EPHB1) of the same molecule?
Its value is 100%.

What about the “Percent Control” value (MAP3K15) of the same molecule?
The value was 72%.

What about the “Percent Control” value (p38-alpha) of the same molecule?
The value was 100%.

What about the “Percent Control” value (LYN) of the same molecule?
The value was 100%.

And the “Percent Control” value (PIK3CA(C420R))?
Its value is 80%.

And the “Percent Control” value (TESK1)?
The value was 83%.

And the “Percent Control” value [1]?
Its value is 100%.

What about the “Percent Control” value [2] of the same molecule?
The value was 100%.

What about the “Percent Control” value [3] of the same molecule?
The value was 100%.
